Each block holds one compound with its values, some of them ahead of it.
How the values were obtained:
Assay type in all cases: binding
CCR9 = molecular target: T1, CCR9 (Homo sapiens, UniProt P51686); assay: NanoBRET screen HiBiT-CCR9 in HEK293
T1 construct: purchased Promega (in-house HiBiT-GPCR construct library, NanoBRET)
T1 sequence (P51686 1-369): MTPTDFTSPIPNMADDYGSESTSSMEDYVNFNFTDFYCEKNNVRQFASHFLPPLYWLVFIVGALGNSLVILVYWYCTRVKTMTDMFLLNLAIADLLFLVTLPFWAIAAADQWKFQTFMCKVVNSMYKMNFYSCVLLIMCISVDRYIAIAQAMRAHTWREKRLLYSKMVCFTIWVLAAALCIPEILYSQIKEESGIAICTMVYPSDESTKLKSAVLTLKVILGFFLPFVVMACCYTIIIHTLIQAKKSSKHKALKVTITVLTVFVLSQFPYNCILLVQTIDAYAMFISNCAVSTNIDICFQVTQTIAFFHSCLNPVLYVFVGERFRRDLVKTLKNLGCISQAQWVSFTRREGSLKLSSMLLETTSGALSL
Method: (§1) Each tracer candidate was screened across the entire library of HiBiT-GPCR constructs using NanoBRET as the detection modality. As depicted in Figure 4A, the specificity of interactions was evaluated through decrease in BRET due to competitive displacement of a bound tracer by excess parental compound. Each tracer was analyzed for binding to each HiBiT-GPCR fusion in the absence and in the presence of competing parental compound. Briefly, HEK293 cells were transfected with HiBiT-GPCR constructs diluted into promoterless DNA to reduce expression and maximize translocation to the cell surface. Each tracer candidate was then screened at concentrations of 1 μM and 0.1 μM across cells expressing these fusions. Cells were treated for 1.5 h with tracer either alone or in the presence of 20 μM competing parental compound (i.e., control). BRET was measured upon addition of purified LgBiT and subsequent complementation with HiBiT genetically fused to a GPCR. The specificity of interactions was assessed through a decrease in BRET signal due to competitive displacement of the bound tracer. To further gauge the robustness of these interactions, the fold response over the control (i.e., BRETtracer/BRETcontrol) was calculated. We chose a 1.5-fold response, which translates to ≥7-fold signal over noise as the minimal threshold required to score an interaction as positive. […]. Below we highlight the screening results obtained for our exemplary fluorescent tracers based on Clozapine, Amitriptyline and AZD1283.
(§2) HiBiT-GPCR DNA constructs were diluted in 10 mM Tris pH 8 to a final concentration of 0.01 μg/μL, arrayed in 96-well plates and stored at −20 °C. For transfection, HEK293 cells were suspended in Opti-MEM (without phenol red) supplemented with 2% fetal bovine serum (Seradigm) and 100 units/mL penicillin–streptomycin (Gibco) at a final concentration of 220,000 cells/mL and dispensed into white 96-well plates at 90 μL/well. Subsequent transfections and screens were carried using an Agilent Bravo Automated Liquid Handling Platform. First, the 96-well HiBiT DNA arrays were diluted 25-fold in Opti-MEM (without serum or phenol red) to a final concentration of 0.0004 μg/μL and 20 μL of the diluted DNAs were transferred into new 96-well plates. Next, promoterless carrier DNA (1 μg/μL) was diluted 25-fold (0.04 μg/μL) and then dispensed into the diluted arrays at 20 μL/well. Following brief mixing, Viafect transfection reagent (Promega) diluted 16-fold into Opti-MEM was dispensed into the plates at 40 μL/well. After mixing by pipetting, plates were incubated for 10 min on the pipetting station deck. The DNA-transfection reagent complexes were then added to plates containing cells. To facilitate the screen, 10 μL of DNA-transfection reagent complexes were added in duplicates to the top 4 and bottom 4 rows, resulting in two identical 48-well arrays per plate. Plates with transfected cells were incubated for 18–20 h at 37 °C/5% CO2. A screen of each tracer across the entire library using two different concentrations requires duplicate plates of transfected cells. Depending on the number of tracers being screened, transfections can be scaled up using the same ratios. The next day, for each tracer, four 20× screening solutions in tracer dilution buffer (Promega) were prepared: two duplicates at final concentration of 20 μM and two duplicates at a final concentration of 2 μM. A competing unmodified compound was added to one of each duplicate at a final concentration of 400 μM. The four resulting solutions were diluted 4-fold in Opti-MEM without serum or phenol red to generate 5× solutions (5 µM and 0.5 µM tracer +/− 100 μM competing compound). To screen the library, a BioTek MultiFlo FX liquid dispenser was used to dispense 22.5 µL of tracer solution to the top 4 rows and 22.5 µL tracer + competing compound solution to the 4 bottom rows. Plates were briefly mixed on an orbital shaker and incubated for 1.5 h at room temperature. […]

LTB4R2 = molecular target: T2, LTB4R2 (Homo sapiens, UniProt Q9NPC1); assay: NanoBRET screen HiBiT-LTB4R2 in HEK293
T2 construct: purchased Promega (in-house HiBiT-GPCR construct library, NanoBRET)
T2 sequence (Q9NPC1 1-358): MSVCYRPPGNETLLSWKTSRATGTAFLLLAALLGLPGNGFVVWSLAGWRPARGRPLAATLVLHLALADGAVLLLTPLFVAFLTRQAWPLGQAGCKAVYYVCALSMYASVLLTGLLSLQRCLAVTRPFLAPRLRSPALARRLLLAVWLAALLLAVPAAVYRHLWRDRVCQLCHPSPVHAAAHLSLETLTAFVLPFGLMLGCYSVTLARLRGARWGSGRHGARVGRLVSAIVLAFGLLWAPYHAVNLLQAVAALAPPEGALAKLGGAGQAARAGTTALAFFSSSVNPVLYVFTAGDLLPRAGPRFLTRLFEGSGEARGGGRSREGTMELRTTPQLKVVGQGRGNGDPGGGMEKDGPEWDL
Method: as §1, §2

F2RL2 = molecular target: T3, F2RL2 (Homo sapiens, UniProt O00254); assay: NanoBRET screen HiBiT-F2RL2 in HEK293
T3 construct: purchased Promega (in-house HiBiT-GPCR construct library, NanoBRET)
T3 sequence (O00254 22-374): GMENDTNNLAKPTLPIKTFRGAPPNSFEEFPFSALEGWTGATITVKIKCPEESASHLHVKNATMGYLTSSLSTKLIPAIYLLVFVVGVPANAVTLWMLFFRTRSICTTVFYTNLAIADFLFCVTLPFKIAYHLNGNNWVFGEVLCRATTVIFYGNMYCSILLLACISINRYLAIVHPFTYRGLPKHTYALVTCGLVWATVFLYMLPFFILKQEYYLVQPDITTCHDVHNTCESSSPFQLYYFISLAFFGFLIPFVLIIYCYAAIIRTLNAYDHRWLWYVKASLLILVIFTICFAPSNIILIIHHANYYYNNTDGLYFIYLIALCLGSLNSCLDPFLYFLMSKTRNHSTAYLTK
Method: as §1, §2

[1] = tracer at 0.1μM, listed as amitriptyline-b-2-NB590
[2] = tracer at 1μM, listed as amitriptyline-b-2-NB590

Compound: N#CN=C(NCCCOc1cccc(CN2CCCCC2)c1)NCCNC(=O)CCOCCOCCOCCOCCNC(=O)CCc1ccc2n1[B-](F)(F)[N+]1=C(c3ccc[nH]3)C=CC1=C2 [Aminopotentidine-2-NB590]
NanoBRET Fold Response (CCR9; CCR9, tracer 0.1μM): 1.09
NanoBRET Fold Response (CCR9; CCR9, tracer 1μM): 1.11
NanoBRET Fold Response (LTB4R2; LTB4R2, tracer 0.1μM): 0.96
NanoBRET Fold Response (LTB4R2; LTB4R2, tracer 1μM): 1.04
NanoBRET Fold Response (F2RL2; F2RL2, tracer 0.1μM): 0.95
NanoBRET Fold Response (F2RL2; F2RL2, tracer 1μM): 1.02

Compound: CN(C)CCC=C1c2ccccc2CCc2ccc(C(=O)NCCNC(=O)CCOCCOCCOCCOCCNC(=O)CCc3ccc4n3[B-](F)(F)[N+]3=C(c5ccc[nH]5)C=CC3=C4)cc21 [Amitriptyline-a-2-NB590]
NanoBRET Fold Response (CCR9; tracer at 0.1μM): 0.99
NanoBRET Fold Response (CCR9; tracer at 1μM): 1.05
NanoBRET Fold Response (LTB4R2; tracer at 0.1μM): 0.97
NanoBRET Fold Response (LTB4R2; tracer at 1μM): 1.08
NanoBRET Fold Response (F2RL2; tracer at 0.1μM): 1.03
NanoBRET Fold Response (F2RL2; tracer at 1μM): 0.99

Compound: CN(C)CCC=C1c2ccccc2CCc2ccc(C(=O)NCCNC(=O)CCOCCOCCOCCOCCNC(=O)CCc3ccc4n3[B-](F)(F)[N+]3=C(c5ccc[nH]5)C=CC3=C4)cc21 [Amitriptyline-b-2-NB590]
NanoBRET Fold Response (CCR9; [1]): 0.81
NanoBRET Fold Response (CCR9; [2]): 0.84
NanoBRET Fold Response (LTB4R2; [1]): 1.03
NanoBRET Fold Response (LTB4R2; [2]): 1.03
NanoBRET Fold Response (F2RL2; tracer at 0.1μM): 1.16
NanoBRET Fold Response (F2RL2; [2]): 0.92

Compound: CN(CCC=C1c2ccccc2CCc2ccccc21)C(=O)CCOCCOCCOCCOCCNC(=O)CCc1ccc2n1[B-](F)(F)[N+]1=C(c3ccc[nH]3)C=CC1=C2 [Amitriptyline-e-2-NB590]
NanoBRET Fold Response (CCR9; tracer at 1μM): 0.95
NanoBRET Fold Response (LTB4R2; tracer at 1μM): 1.06

Now from value to compound:

NanoBRET Fold Response (CCR9; CCR9, 0.1μM): 1.13
NanoBRET Fold Response (CCR9; CCR9, 1μM): 1.10
NanoBRET Fold Response (LTB4R2; LTB4R2, 0.1μM): 1.17
NanoBRET Fold Response (LTB4R2; LTB4R2, 1μM): 1.18
NanoBRET Fold Response (F2RL2; F2RL2, 0.1μM): 1.01
NanoBRET Fold Response (F2RL2; F2RL2, 1μM): 1.12
Compound: CCOC(=O)c1cc(C#N)c(N2CCC(C(=O)NS(=O)(=O)Cc3ccccc3/C=C/C(=O)NCCNC(=O)CCc3ccc4n3[B-](F)(F)[N+]3=C(c5ccc[nH]5)C=CC3=C4)CC2)nc1C [AZD1283-1-NB590]

NanoBRET Fold Response (CCR9; 0.1μM tracer): 1.05
NanoBRET Fold Response (CCR9; 1μM tracer): 1.04
NanoBRET Fold Response (LTB4R2; 0.1μM tracer): 1.02
NanoBRET Fold Response (LTB4R2; 1μM tracer): 1.02
NanoBRET Fold Response (F2RL2; 0.1μM tracer): 1.00
NanoBRET Fold Response (F2RL2; 1μM tracer): 1.03
Compound: COc1ccc2c(n1)c(CCNC(C)=O)cn2CCNC(=O)CCc1ccc2n1[B-](F)(F)[N+]1=C(c3ccc[nH]3)C=CC1=C2 [Azamelatonin-1-NB590]
